Data from BindingDB's records for PubMed 35176561 (Shenyang Pharmaceutical University, 2022).

Target: Amyloid-beta precursor protein (Homo sapiens, UniProt P05067)
Test: Inhibition of amyloid beta 42 (unknown origin) secretion

Chain of Amyloid-beta precursor protein (P05067 whole entry): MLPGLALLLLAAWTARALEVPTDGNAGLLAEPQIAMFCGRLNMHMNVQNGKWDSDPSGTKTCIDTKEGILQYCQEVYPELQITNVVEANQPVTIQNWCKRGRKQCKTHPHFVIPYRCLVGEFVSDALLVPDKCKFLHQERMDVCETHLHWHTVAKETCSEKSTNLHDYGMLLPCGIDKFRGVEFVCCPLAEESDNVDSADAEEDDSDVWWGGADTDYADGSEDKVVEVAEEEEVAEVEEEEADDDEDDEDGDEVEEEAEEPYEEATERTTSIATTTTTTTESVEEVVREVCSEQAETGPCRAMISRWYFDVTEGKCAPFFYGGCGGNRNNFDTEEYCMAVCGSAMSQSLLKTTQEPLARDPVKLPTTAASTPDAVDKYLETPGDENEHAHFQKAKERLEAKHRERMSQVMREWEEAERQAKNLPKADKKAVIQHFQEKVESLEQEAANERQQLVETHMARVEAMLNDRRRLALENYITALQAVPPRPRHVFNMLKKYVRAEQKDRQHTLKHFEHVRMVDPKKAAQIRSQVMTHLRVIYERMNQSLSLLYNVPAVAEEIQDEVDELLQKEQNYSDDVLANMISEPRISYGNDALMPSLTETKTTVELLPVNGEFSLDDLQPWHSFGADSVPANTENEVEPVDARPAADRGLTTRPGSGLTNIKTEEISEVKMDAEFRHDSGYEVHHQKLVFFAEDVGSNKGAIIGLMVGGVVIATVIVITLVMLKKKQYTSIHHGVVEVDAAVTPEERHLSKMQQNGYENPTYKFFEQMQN

IC50	Structure (SMILES)
4.1 nM	COc1nc(-c2cc(C)c(N[C@@H](C)c3cc(F)cc(F)c3)nn2)ccc1-n1cnc(C)c1
5.3 nM	COc1nc(-c2cc(C)c(N[C@@H](C)c3cc(F)c(F)c(F)c3)nn2)ccc1-n1cnc(C)c1
